How the values were obtained:
[1] = molecular target: T1, C-C chemokine receptor type 3 (Homo sapiens, UniProt P51677); test: In vitro inhibition if C-C chemokine receptor type 3 (CCR3) using 150p M [125I]-labeled human eotaxin
T1 sequence (P51677 whole entry): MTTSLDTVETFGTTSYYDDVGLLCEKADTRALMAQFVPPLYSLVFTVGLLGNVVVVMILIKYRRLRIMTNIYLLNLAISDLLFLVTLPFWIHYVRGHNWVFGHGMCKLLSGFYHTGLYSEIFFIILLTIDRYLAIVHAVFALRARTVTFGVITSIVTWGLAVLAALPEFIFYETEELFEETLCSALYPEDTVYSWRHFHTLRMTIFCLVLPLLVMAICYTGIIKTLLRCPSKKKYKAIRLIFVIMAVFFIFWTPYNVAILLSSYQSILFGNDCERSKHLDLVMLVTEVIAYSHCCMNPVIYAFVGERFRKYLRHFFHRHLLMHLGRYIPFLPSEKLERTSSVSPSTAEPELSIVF

[2] = molecular target: T1, C-C chemokine receptor type 3; test: In vitro C-C chemokine receptor type 3 receptor activity of compound to inhibit eotaxin induced [Ca2+] mobilization in human Ca2+ mobilization assay
[3] = molecular target: T2, C-C chemokine receptor type 3 (Homo sapiens) (UniProt P51677); test: In vitro inhibitory activity of compound against C-C chemokine receptor type 3 at 5 uM using 150p M [125I]-labeled human eotaxin as radioligand
T2 sequence (whole entry): T1 sequence (P51677 whole entry)

[4] = molecular target: T2, C-C chemokine receptor type 3 (Homo sapiens); test: In vitro inhibitory activity against C-C chemokine receptor type 3 at 10 uM using 150p M [125I]-labeled human eotaxin
[5] = molecular target: T2, C-C chemokine receptor type 3 (Homo sapiens); conditions: 0.5 uM
Description: In vitro inhibitory activity of compound against C-C chemokine receptor type 3 at 0.5 uM using 150p M [125I]-labeled human eotaxin as radioligand

Row | Structure (SMILES) | IC50 [1] [nM] | IC50 [2] [nM] | inhibition [3] [%] | inhibition [4] [%] | inhibition [5] [%]
1 | COc1cccc(NC(=O)N2CCN(C(=O)OC(C)(C)C)C(CN3CCC(Cc4ccc(F)cc4)CC3)C2)c1 (racemic) | 40 | 200 |  |  | 
2 | COc1cccc(NC(=O)N2CCCC(CN3CCC(Cc4ccc(F)cc4)CC3)C2)c1 (racemic) | 50 | 820 |  |  | 
3 | COc1cccc(NC(=O)N2CCNC(CN3CCC(Cc4ccc(F)cc4)CC3)C2)c1 (racemic) | 30 | 140 |  |  | 
4 | N#Cc1cccc(NC(=O)NCCCN2CCC(Cc3ccc(C(F)(F)F)cc3)CC2)c1 |  |  | 52 |  | 
5 | CC(C)(C)C(=O)NCCCCN1CC[C@@H]2[C@H](C1)c1cccc3c1N2CC3 | 25600 |  |  | 45 | 
6 | O=C(NCCCCN1CC[C@@H]2[C@H](C1)c1cccc3c1N2CC3)C1CCCCC1 | 11000 |  |  | 45 | 
7 | COc1cccc(NC(=O)N2CCOC(CN3CCC(Cc4ccc(F)cc4)CC3)C2)c1 (racemic) | 50 | 220 |  |  | 
8 | O=C(NCCCCN1CC[C@@H]2[C@H](C1)c1cccc3c1N2CC3)C12CC3CC(CC(C3)C1)C2 | 6600 |  |  | 73 | 
9 | CC[C@H](O)[C@H]1C[C@@H](Cc2ccccc2)CCN1CCCNC(=O)Nc1cccc(C(C)=O)c1 |  |  |  |  | 40

Reference: ChEMBL document CHEMBL1136024, “CCR3 antagonists: a potential new therapy for the treatment of asthma. Discovery and structure-activity relationships” (Bioorg Med Chem Lett, 2002)
